# In paper PMC11435058, “Synthesis of New Thiazole-Privileged Chalcones as Tubulin Polymerization Inhibitors with Potential Anticancer Activities” (Pharmaceuticals, 2024):
# Like-named read-outs stand apart in the source and are kept apart here.
# What was measured:
# [1] = test system: 60 human tumor cell lines panel; experiment: NCI-60 anticancer screen, whole panel (means and ranges over the cell lines); type: cell-based; details: for activity at 10 µM: Homo sapiens, 48 h, dose of 10 μM
# MOLT-4 = experiment: NCI-60 anticancer screen (SRB; single dose and five doses); details: Homo sapiens
# T-47D = experiment: as above; details: Homo sapiens, T47D
# OVCAR-3 = experiment: cells; details: Homo sapiens
# UO-31 = experiment: NCI-60 anticancer screen (SRB; single dose and five doses); details: Homo sapiens
# HCC-2998 = experiment: as above; details: Homo sapiens, HCC 2998, 48 h, read-out: Growth Percentage
# 786-0 = experiment: as above; details: Homo sapiens
# K-562 = experiment: as above; details: Homo sapiens
# MDA-MB-435 = experiment: as above; details: Homo sapiens
# TK-10 = experiment: as above; details: Homo sapiens
# MALME-3M = experiment: as above; details: Homo sapiens
# LOX IMVI = experiment: as above; details: Homo sapiens
# HCT-116 = experiment: as above; details: Homo sapiens
# U251 = experiment: as above; details: Homo sapiens
# NCI-H522 = experiment: as above; details: Homo sapiens
# OVCAR-5 = experiment: as above; details: Homo sapiens
# OVCAR-4 = experiment: as above; details: Homo sapiens
# SK-OV-3 = experiment: as above; details: Homo sapiens
# NCI-H226 = experiment: as above; details: Homo sapiens
# HT29 = experiment: as above; details: Homo sapiens
# A549/ATCC = experiment: as above; details: Homo sapiens
# MCF7 = experiment: as above; details: Homo sapiens
# NCI/ADR-RES = experiment: as above; details: Homo sapiens
# SNB-19 = experiment: cells; details: Homo sapiens
# KM12 = experiment: NCI-60 anticancer screen (SRB; single dose and five doses); details: Homo sapiens
# HL-60(TB) = experiment: as above; details: Homo sapiens
# UACC-257 = experiment: as above; details: Homo sapiens
# SK-MEL-5 = experiment: as above; details: Homo sapiens
# HCT-15 = experiment: as above; details: Homo sapiens
# [2] = five doses, mean graph midpoint over all cell lines
# [3] = 48 h, read-out: Growth Percentage
compound,measurement,setting,value
"Cc1[nH]c(=S)sc1C(=O)/C=C/c1ccc(Cl)cc1 [2f, (E)-3-(4-Chlorophenyl)-1-(4-Methyl-2-Thioxo-2,3-Dihydrothiazol-5-yl)Prop-2-En-1-One]",activity at 10 µM,"[1]; mean over the tested cell lines, read-out: Mean growth percentage",23.7%
same,activity at 10 µM,"[1]; range over the cell lines, read-out: growth percentages against most of the tested cells (lowest to highest)",-48.1 to 106%
same,Log10GI50 _MID,[1]; [2],-5.13 Molar
same,Log10LC50 _MID,[1]; [2],-4.23 Molar
same,Log10TGI _MID,[1]; [2],-4.63 Molar
same,GI50,MOLT-4; MOLT-4,14.5 µM
same,IC50,MOLT-4; MOLT-4,24.6 µM
same,activity at 10 µM,"MOLT-4; MOLT-4, 48 h, read-out: Growth Percentage",10.2%
same,CC50,"MOLT-4; MOLT-4, read-out: LC50",> 100 µM
same,IC (TGI),"MOLT-4; MOLT-4, read-out: TGI",79.4 µM
same,GI50,T-47D,3.47 µM
same,IC50,T-47D,14.1 µM
same,activity at 10 µM,T-47D; [3],1.38%
same,CC50,T-47D; read-out: LC50,81.3 µM
same,IC (TGI),T-47D; read-out: TGI,19.1 µM
same,GI50,OVCAR-3; OVCAR-3,2.82 µM
same,activity at 10 µM,"OVCAR-3; OVCAR-3, 48 h, read-out: Growth Percentage",-24.2%
same,IC50,"OVCAR-3; OVCAR-3, OVCAR-3, five doses",2.82 µM
same,IC50,"OVCAR-3; OVCAR-3, five-dose, Ovarian Cancer OVCAR-3",6.46 µM
same,CC50,"OVCAR-3; OVCAR-3, read-out: LC50",33.1 µM
same,IC (TGI),"OVCAR-3; OVCAR-3, read-out: TGI",10.7 µM
same,GI50,UO-31; UO-31,4.07 µM
same,IC50,UO-31; UO-31,11.2 µM
same,activity at 10 µM,"UO-31; UO-31, 48 h, read-out: Growth Percentage",30.4%
same,IC (TGI),"UO-31; UO-31, read-out: TGI",18.2 µM
same,activity at 10 µM,HCC-2998,-21.3%
same,GI50,786-0; 786-0,4.68 µM
same,IC50,786-0; 786-0,7.76 µM
same,activity at 10 µM,"786-0; 786-0, 48 h, read-out: Growth Percentage",16.6%
same,CC50,"786-0; 786-0, read-out: LC50",58.9 µM
same,IC (TGI),"786-0; 786-0, read-out: TGI",20.4 µM
same,GI50,K-562; K562,3.89 µM
same,IC50,K-562; K562,4.68 µM
same,activity at 10 µM,"K-562; K562, 48 h, read-out: Growth Percentage",7.94%
same,CC50,"K-562; K562, read-out: LC50",> 100 µM
same,IC (TGI),"K-562; K562, read-out: TGI",> 100 µM
same,GI50,MDA-MB-435; MDA-MB-435,5.5 µM
same,IC50,MDA-MB-435; MDA-MB-435,11 µM
same,activity at 10 µM,"MDA-MB-435; MDA-MB-435, 48 h, read-out: Growth Percentage",22.5%
same,CC50,"MDA-MB-435; MDA-MB-435, read-out: LC50",49 µM
same,IC (TGI),"MDA-MB-435; MDA-MB-435, read-out: TGI",19.1 µM
same,GI50,TK-10; TK-10,15.1 µM
same,IC50,TK-10; TK-10,28.2 µM
same,activity at 10 µM,"TK-10; TK-10, 48 h, read-out: Growth Percentage",40.4%
same,CC50,"TK-10; TK-10, read-out: LC50",55 µM
same,IC (TGI),"TK-10; TK-10, read-out: TGI",28.8 µM
same,GI50,MALME-3M,14.5 µM
same,IC50,MALME-3M,30.9 µM
same,CC50,MALME-3M; read-out: LC50,75.9 µM
same,IC (TGI),MALME-3M; read-out: TGI,33.1 µM
same,GI50,LOX IMVI,3.39 µM
same,IC50,LOX IMVI,4.47 µM
same,activity at 10 µM,LOX IMVI; [3],-48.1%
same,CC50,LOX IMVI; read-out: LC50,38 µM
same,IC (TGI),LOX IMVI; read-out: TGI,12 µM
same,GI50,HCT-116; HCT-116,6.61 µM
same,IC50,HCT-116; HCT-116,7.94 µM
same,activity at 10 µM,"HCT-116; HCT-116, 48 h, read-out: Growth Percentage",6.98%
same,CC50,"HCT-116; HCT-116, read-out: LC50",74.1 µM
same,IC (TGI),"HCT-116; HCT-116, read-out: TGI",24.6 µM
same,GI50,U251; U-251,3.39 µM
same,IC50,U251; U-251,4.79 µM
same,activity at 10 µM,"U251; U-251, 48 h, read-out: Growth Percentage",11.3%
same,CC50,"U251; U-251, read-out: LC50",40.7 µM
same,IC (TGI),"U251; U-251, read-out: TGI",13.2 µM
same,GI50,NCI-H522; NCI-H522,11.8 µM
same,IC50,NCI-H522; NCI-H522,22.4 µM
same,activity at 10 µM,"NCI-H522; NCI-H522, 48 h, read-out: Growth Percentage",13.5%
same,CC50,"NCI-H522; NCI-H522, read-out: LC50",52.5 µM
same,IC (TGI),"NCI-H522; NCI-H522, read-out: TGI",25.1 µM
same,GI50,OVCAR-5; OVCAR-5,17.8 µM
same,IC50,OVCAR-5; OVCAR-5,32.4 µM
same,activity at 10 µM,"OVCAR-5; OVCAR-5, 48 h, read-out: Growth Percentage",50.8%
same,CC50,"OVCAR-5; OVCAR-5, read-out: LC50",60.3 µM
same,IC (TGI),"OVCAR-5; OVCAR-5, read-out: TGI",33.1 µM
same,GI50,OVCAR-4; OVCAR-4,13.8 µM
same,IC50,OVCAR-4; OVCAR-4,25.1 µM
same,activity at 10 µM,"OVCAR-4; OVCAR-4, 48 h, read-out: Growth Percentage",76.3%
same,CC50,"OVCAR-4; OVCAR-4, read-out: LC50",55 µM
same,IC (TGI),"OVCAR-4; OVCAR-4, read-out: TGI",27.5 µM
same,GI50,SK-OV-3; SK-OV-3,15.8 µM
same,IC50,SK-OV-3; SK-OV-3,30.2 µM
same,activity at 10 µM,"SK-OV-3; SK-OV-3, 48 h, read-out: Growth Percentage",60.8%
same,CC50,"SK-OV-3; SK-OV-3, read-out: LC50",66.1 µM
same,IC (TGI),"SK-OV-3; SK-OV-3, read-out: TGI",32.4 µM
same,GI50,NCI-H226; NCI-H226,13.8 µM
same,IC50,NCI-H226; NCI-H226,36.3 µM
same,activity at 10 µM,"NCI-H226; NCI-H226, 48 h, read-out: Growth Percentage",20.5%
same,CC50,"NCI-H226; NCI-H226, read-out: LC50",> 100 µM
same,IC (TGI),"NCI-H226; NCI-H226, read-out: TGI",38 µM
same,GI50,HT29; HT-29,6.76 µM
same,IC50,HT29; HT-29,9.55 µM
same,activity at 10 µM,"HT29; HT-29, 48 h, read-out: Growth Percentage",31.2%
same,CC50,"HT29; HT-29, read-out: LC50",53.7 µM
same,IC (TGI),"HT29; HT-29, read-out: TGI",20.9 µM
same,GI50,A549/ATCC; A549,10.7 µM
same,IC50,A549/ATCC; A549,16.2 µM
same,activity at 10 µM,"A549/ATCC; A549, 48 h, read-out: Growth Percentage",61.1%
same,CC50,"A549/ATCC; A549, read-out: LC50",52.5 µM
same,IC (TGI),"A549/ATCC; A549, read-out: TGI",24 µM
same,GI50,MCF7; MCF7,3.16 µM
same,IC50,MCF7; MCF7,4.68 µM
same,activity at 10 µM,"MCF7; MCF7, 48 h, read-out: Growth Percentage",4.86%
same,CC50,"MCF7; MCF7, read-out: LC50",43.6 µM
same,IC (TGI),"MCF7; MCF7, read-out: TGI",13.2 µM
same,GI50,NCI/ADR-RES,3.72 µM
same,IC50,NCI/ADR-RES,7.08 µM
same,activity at 10 µM,NCI/ADR-RES; [3],-8.39%
same,CC50,NCI/ADR-RES; read-out: LC50,77.6 µM
same,IC (TGI),NCI/ADR-RES; read-out: TGI,17.4 µM
same,GI50,SNB-19; SNB-19,12 µM
same,IC50,SNB-19; SNB-19,22.4 µM
same,activity at 10 µM,"SNB-19; SNB-19, 48 h, read-out: Growth Percentage",15.8%
same,CC50,"SNB-19; SNB-19, read-out: LC50",50.1 µM
same,IC (TGI),"SNB-19; SNB-19, read-out: TGI",24.6 µM
same,GI50,KM12; KM12,4.17 µM
same,IC50,KM12; KM12,8.13 µM
same,activity at 10 µM,"KM12; KM12, 48 h, read-out: Growth Percentage",6.77%
same,CC50,"KM12; KM12, read-out: LC50",45.7 µM
same,IC (TGI),"KM12; KM12, read-out: TGI",16.6 µM
same,GI50,HL-60(TB); HL-60,3.55 µM
same,IC50,HL-60(TB); HL-60,5.89 µM
same,activity at 10 µM,"HL-60(TB); HL-60, 48 h, read-out: Growth Percentage",-0.98%
same,CC50,"HL-60(TB); HL-60, read-out: LC50",> 100 µM
same,IC (TGI),"HL-60(TB); HL-60, read-out: TGI",38 µM
same,GI50,UACC-257; UACC-257,13.8 µM
same,IC50,UACC-257; UACC-257,26.9 µM
same,activity at 10 µM,"UACC-257; UACC-257, 48 h, read-out: Growth Percentage",66.8%
same,CC50,"UACC-257; UACC-257, read-out: LC50",56.2 µM
same,IC (TGI),"UACC-257; UACC-257, read-out: TGI",27.5 µM
same,GI50,SK-MEL-5; SK-MEL-5,11.2 µM
same,IC50,SK-MEL-5; SK-MEL-5,20.4 µM
same,activity at 10 µM,"SK-MEL-5; SK-MEL-5, 48 h, read-out: Growth Percentage",28%
same,CC50,"SK-MEL-5; SK-MEL-5, read-out: LC50",49 µM
same,IC (TGI),"SK-MEL-5; SK-MEL-5, read-out: TGI",23.4 µM
same,GI50,HCT-15; HCT-15,4.07 µM
same,IC50,HCT-15; HCT-15,5.37 µM
same,activity at 10 µM,"HCT-15; HCT-15, 48 h, read-out: Growth Percentage",-19.8%
same,CC50,"HCT-15; HCT-15, read-out: LC50",49 µM
same,IC (TGI),"HCT-15; HCT-15, read-out: TGI",16.6 µM
